Measurements published in patent publication US12492163B2, “9H-fluorene derivatives or their pharmaceutically acceptable salts” (priority 2020, dated 2025).

Key:
[1] = molecular target: horse plasma butyrylcholinesterase (eqBuChE) (Equus caballus (Horse), UniProt P81908); test: Ellman's test, inhibition of horse plasma butyrylcholinesterase; assay type: biochemical
Outline: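 Modified Ellman assay: compound preincubated 5 min with enzyme and DTNB in 0.1 M phosphate buffer pH 8.0 at 25° C (eqBuChE) or 36° C (hBuChE), then butyrylthiocholine added; absorbance change at 412 nm read after 5 min. Screening at 10 μM (eqBuChE) or 1 μM (hBuChE); IC50 by non-linear regression, triplicates.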

C57BL/6J mice = test: Barnes maze test (scopolamine); assay type: in vivo, Mus musculus
Method: (§1) The research was conducted at the Department of Pharmacodynamics, Faculty of Pharmacy, Jagiellonian University in Krakow. All procedures were approved by the 1st and 2nd Local Ethics Committee for Animal Experiments in Krakow (consent no. 53/2017 and 250/2019) and were performed in accordance with the applicable European Union regulation (86/609/EEC). Males of two different strains of domestic mice (Mus musculus) were used in the study: Albino Swiss CD-1 (body weight approx. 20-24 g, age approx. 6 weeks) and C57BL/6J mice (body weight approx. 18-22 g, age approx. 6 weeks). The CD-1 strain was used for the passive avoidance, spontaneous mobility and rotating rod tests, while the C57BL/6J mice were used for the Morris water maze and the Barnes' maze. The animals were kept in standard, appropriately sized cages, divided into groups with a maximum of 10 animals. The animals in the study groups in the learning phase were intraperitoneally administered the test compound 1 h before the start of the experiments (doses in the preliminary test, i.e. in the passive avoidance test: 10, 30 and 60 mg/kg), and 30 minutes later, 1 mg/kg of scopolamine subcutaneously. Two control groups were used in the tests to assess the procognitive activity of JT-3—one of them received saline and the other saline and scopolamine.
The test is used to study spatial (hippocampal-dependent) memory. […] Barnes' maze has 18 escape holes (escape points) evenly spaced on the outer edges of the circular platform, and only one of them leads to so-called escape box, where the mouse can hide. For the first four days (acquisition phase), the mouse was placed in the center of the maze in the starting chamber, the light was turned on, then the chamber was raised and time was started. The number of errors was also counted, i.e. how many holes the mouse approached before approaching the right hole for the first time, and the total number of errors until it entered the escape box. […] Each mouse was subjected to four trials a day.
On the fifth day, which is the recall phase (without administration of compounds), the box was removed from the escape hole and the total errors, the number of errors made up to the first approach of the mouse to the hole where the escape box was previously found and the latency to the first approach of the mouse were counted for 90 seconds to that hole were counted. The number of approaches to this hole and the time the mouse spent on it were also counted. On the twelfth day—“proper test” (without administration of compounds), the effect of the compound on long-term memory was assessed. The experiment was as in the recall phase; the same parameters were measured. Between the fifth and twelfth days, the animals were kept in home cages.

Albino Swiss CD-1 mice = test: Spontaneous motor activity test; assay type: in vivo
Method: as §1, with “The animals in the study groups in the learning phase were intraperitoneally administered the test compound 1 h before the start of the experiments (doses in the preliminary test, i.e. in the passive avoidance test: 10, 30 and 60 mg/kg), and 30 minutes later, 1 mg/kg of scopolamine subcutaneously. Two control groups were used in the tests to assess the procognitive activity of JT-3—one of them received saline and the other saline and scopolamine.” left out
In this test, the effect of compound JT-3 on the spontaneous motor activity of mice was investigated. […] The apparatus recorded the number of horizontal and vertical movements during the 60-minute test. The mice were put into the actometer, the measurement lasted for 1 hour, during which the camera counted the number of times the light beams were crossed, i.e. motor activity. […]

horse plasma butyrylcholinesterase (eqBuChE), sequence (P81908 whole entry): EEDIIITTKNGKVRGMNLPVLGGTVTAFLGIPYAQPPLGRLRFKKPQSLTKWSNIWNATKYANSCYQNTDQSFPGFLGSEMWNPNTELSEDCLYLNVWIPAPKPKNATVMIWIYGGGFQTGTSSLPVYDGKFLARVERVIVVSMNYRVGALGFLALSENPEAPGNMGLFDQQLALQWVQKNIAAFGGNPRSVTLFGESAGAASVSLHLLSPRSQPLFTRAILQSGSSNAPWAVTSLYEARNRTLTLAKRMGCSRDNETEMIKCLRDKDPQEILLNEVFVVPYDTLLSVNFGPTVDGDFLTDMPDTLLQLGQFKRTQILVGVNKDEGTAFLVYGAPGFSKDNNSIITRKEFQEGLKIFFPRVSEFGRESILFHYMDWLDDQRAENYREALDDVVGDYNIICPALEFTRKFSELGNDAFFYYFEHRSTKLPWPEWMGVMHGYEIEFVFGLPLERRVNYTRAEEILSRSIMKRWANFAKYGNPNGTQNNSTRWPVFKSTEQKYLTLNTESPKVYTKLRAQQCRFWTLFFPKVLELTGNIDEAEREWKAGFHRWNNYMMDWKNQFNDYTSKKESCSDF

O[C@H](CNCC1CC1)[C@H](Cc1ccccc1)NC1c2ccccc2-c2ccccc21 [JT-3, (2R,3S)-3-((9H-fluoren-9-yl)amino)-1-((cyclopropylmethyl)amino)-4-phenylbutan-2-ol]
IC50 [1]: 313 nM
number of errors made before finding the escape site, acquisition phase (C57BL/6J mice; 10 mg/kg i.p., days 1-4): no statistically significant differences
latency to find the escape site, acquisition phase vs scopolamine control (C57BL/6J mice; 10 mg/kg i.p., fourth day of the test, p<0.05): Statistically significant differences
recall phase activity (C57BL/6J mice; fifth day, 10 mg/kg i.p. on days 1-4): not active
number of errors made to find the escape zone vs scopolamine control (C57BL/6J mice; twelfth day, 10 mg/kg i.p. on days 1-4, p<0.0001): the reduction in errors was also statistically significant
latency to find the escape zone vs scopolamine control (C57BL/6J mice; twelfth day, 10 mg/kg i.p. on days 1-4, p<0.05): the reduction in latency was also statistically significant
effect on spontaneous motor activity (number of movements in 60 min) (Albino Swiss CD-1 mice; 10 mg/kg i.p.): Neither of these doses affected the motility of the animals
effect on spontaneous motor activity (number of movements in 60 min) (Albino Swiss CD-1 mice; 30 mg/kg i.p.): Neither of these doses affected the motility of the animals
